Laboratory results as given in the supplement of paper PMC8617591.

Tests used:
[1] = test system: Mycobacterium tuberculosis Erdman (autoluminescent); assay: Einf, fitted maximum growth inhibition of three-drug combination (fraction); higher = stronger maximal inhibition
Protocol: (§1)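 DiaMOND equipotent three-drug combination dose responses (10 doses, 1.5- or 2-fold spacing, centred on IC90) against autoluminescent M. tuberculosis Erdman in 8 in vitro models. Read-out is OD600, or luminescence for the intracellular and dormancy models, normalised to untreated wells. Hill-fit Einf, AUC25 and GRinf are potency metrics; FIC50 and FIC90 are total Loewe fractional inhibitory concentrations as log2 (negative = synergy).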

[2] = test system: Mycobacterium tuberculosis Erdman (autoluminescent); assay: total FIC90 (Loewe) at 90% inhibition, three-drug combination (log2); higher = more antagonistic
Protocol: as §1

[3] = test system: Mycobacterium tuberculosis Erdman (autoluminescent); assay: GRinf, maximum normalised growth rate inhibition (three-drug combination) (unitless (-1 to 1)); higher = less effect (negative = killing)
Protocol: as §1

[4] = test system: Mycobacterium tuberculosis Erdman (autoluminescent); assay: total FIC50 (Loewe) at 50% inhibition, three-drug combination (log2); higher = more antagonistic
Protocol: as §1

[5] = test system: Mycobacterium tuberculosis Erdman (autoluminescent); assay: AUC25, normalised area under dose response up to IC25 (three-drug combination) (fraction (0-1)); higher = more potent at low dose
Protocol: as §1

CC[C@@H](CO)NCCN[C@@H](CC)CO [ethambutol] + NC(=O)c1cnccn1 [pyrazinamide] + CO[C@H]1/C=C/O[C@@]2(C)Oc3c(C)c(O)c4c(O)c(c(/C=N/N5CCN(C6CCCC6)CC5)c(O)c4c3C2=O)NC(=O)/C(C)=C\C=C\[C@H](C)[C@H](O)[C@@H](C)[C@@H](O)[C@@H](C)[C@H](OC(C)=O)[C@@H]1C [rifapentine]
Conditions	AUC25, [5]	Einf, [1]	GRinf, [3]	total FIC50, [4]	total FIC90, [2]
in vitro model: acidic pH 5.7, time point: constant (~7 days, model-specific)	0.0954	0.885	-0.165	-0.399	–
in vitro model: acidic pH 5.7, time point: terminal (~4-5 doublings, model-specific)	0.0652	0.98	-0.191	-0.0475	–
in vitro model: intracellular J774, time point: constant = terminal	–	0.977	-0.419	–	-1.88

Conditions	AUC25, [5]	Einf, [1]	GRinf, [3]	total FIC50, [4]	total FIC90, [2]
in vitro model: butyrate, time point: constant (~7 days, model-specific)	0.0808	0.911	0.0172	0.221	–
in vitro model: butyrate, time point: terminal (~4-5 doublings, model-specific)	0.0667	0.958	0.025	0.309	-0.154
in vitro model: cholesterol 0.05 mM, time point: constant (~7 days, model-specific)	0.116	0.659	-0.834	–	–
in vitro model: cholesterol 0.05 mM, time point: terminal (~4-5 doublings, model-specific)	0.11	0.886	-0.315	1.58	–
in vitro model: cholesterol-high 0.2 mM, time point: constant (~7 days, model-specific)	0.0322	0.941	-0.414	1.2	–
in vitro model: cholesterol-high 0.2 mM, time point: terminal (~4-5 doublings, model-specific)	0.0395	0.999	-0.679	1.46	1.21
in vitro model: dormancy (butyrate + nitrate, low O2), time point: constant (~7 days, model-specific)	0.0922	0.87	0.301	-0.0129	–
in vitro model: dormancy (butyrate + nitrate, low O2), time point: terminal (~4-5 doublings, model-specific)	0.116	0.984	-0.233	0.284	1.88
in vitro model: standard 7H9 glycerol, time point: constant = terminal	0.0407	0.883	0.165	0.158	–
in vitro model: valerate, time point: constant (~7 days, model-specific)	0.0408	0.821	0.114	0.105	–
in vitro model: valerate, time point: terminal (~4-5 doublings, model-specific)	0.0268	0.909	0.11	0.338	-0.692

CC[C@@H](CO)NCCN[C@@H](CC)CO [ethambutol] + CC(=O)NC[C@H]1CN(c2ccc(N3CCOCC3)c(F)c2)C(=O)O1 [linezolid] + O=[N+]([O-])c1cn2c(n1)OC[C@@H](OCc1ccc(OC(F)(F)F)cc1)C2 [pretomanid]
Conditions	AUC25, [5]	Einf, [1]	GRinf, [3]	total FIC50, [4]	total FIC90, [2]
in vitro model: acidic pH 5.7, time point: constant (~7 days, model-specific)	0.134	0.896	-0.388	0.236	–
in vitro model: acidic pH 5.7, time point: terminal (~4-5 doublings, model-specific)	0.0878	0.967	-0.322	1.28	1.01
in vitro model: intracellular J774, time point: constant = terminal	–	0.975	-0.561	–	0.0435

Conditions	AUC25, [5]	Einf, [1]	GRinf, [3]	total FIC50, [4]	total FIC90, [2]
in vitro model: butyrate, time point: constant (~7 days, model-specific)	0.0842	0.911	0.0181	0.478	–
in vitro model: butyrate, time point: terminal (~4-5 doublings, model-specific)	0.0626	0.944	0.0489	0.404	0.144
in vitro model: cholesterol 0.05 mM, time point: constant (~7 days, model-specific)	0.12	0.731	-0.14	-0.149	–
in vitro model: cholesterol 0.05 mM, time point: terminal (~4-5 doublings, model-specific)	0.146	0.921	-0.207	-1.06	–
in vitro model: cholesterol-high 0.2 mM, time point: constant (~7 days, model-specific)	0.0978	0.905	-0.175	0.567	–
in vitro model: cholesterol-high 0.2 mM, time point: terminal (~4-5 doublings, model-specific)	0.104	1	-0.831	0.339	0.921
in vitro model: dormancy (butyrate + nitrate, low O2), time point: constant (~7 days, model-specific)	0.142	0.891	-0.209	1.03	–
in vitro model: dormancy (butyrate + nitrate, low O2), time point: terminal (~4-5 doublings, model-specific)	0.0963	0.981	-0.881	-0.0848	-0.19
in vitro model: standard 7H9 glycerol, time point: constant = terminal	0.0762	0.904	0.0621	0.648	–
in vitro model: valerate, time point: constant (~7 days, model-specific)	0.153	0.901	-0.16	-0.171	–
in vitro model: valerate, time point: terminal (~4-5 doublings, model-specific)	0.115	0.923	-0.0362	-0.419	2.13

CC[C@@H](CO)NCCN[C@@H](CC)CO [ethambutol] + CC(=O)NC[C@H]1CN(c2ccc(N3CCOCC3)c(F)c2)C(=O)O1 [linezolid] + COc1c(N2C[C@@H]3CCCN[C@@H]3C2)c(F)cc2c(=O)c(C(=O)O)cn(C3CC3)c12 [moxifloxacin]
Conditions	AUC25, [5]	Einf, [1]	GRinf, [3]	total FIC50, [4]	total FIC90, [2]
in vitro model: acidic pH 5.7, time point: constant (~7 days, model-specific)	0.121	0.782	-0.587	0.0272	–
in vitro model: acidic pH 5.7, time point: terminal (~4-5 doublings, model-specific)	0.101	0.956	-0.36	1.25	0.487
in vitro model: intracellular J774, time point: constant = terminal	–	0.966	-0.388	–	-0.395

Conditions	AUC25, [5]	Einf, [1]	GRinf, [3]	total FIC50, [4]	total FIC90, [2]
in vitro model: butyrate, time point: constant (~7 days, model-specific)	0.0929	0.887	0.105	0.436	–
in vitro model: butyrate, time point: terminal (~4-5 doublings, model-specific)	0.0678	0.938	0.104	0.501	0.397
in vitro model: cholesterol 0.05 mM, time point: constant (~7 days, model-specific)	0.149	0.725	-0.165	-0.0271	–
in vitro model: cholesterol 0.05 mM, time point: terminal (~4-5 doublings, model-specific)	0.162	0.932	-0.548	7.63	–
in vitro model: cholesterol-high 0.2 mM, time point: constant (~7 days, model-specific)	0.111	0.942	-0.318	0.596	–
in vitro model: cholesterol-high 0.2 mM, time point: terminal (~4-5 doublings, model-specific)	0.109	1	-0.97	0.421	1
in vitro model: dormancy (butyrate + nitrate, low O2), time point: constant (~7 days, model-specific)	0.0953	0.849	0.414	0.25	–
in vitro model: dormancy (butyrate + nitrate, low O2), time point: terminal (~4-5 doublings, model-specific)	0.0816	0.967	-0.0859	-0.563	0.576
in vitro model: standard 7H9 glycerol, time point: constant = terminal	0.0554	0.958	-0.3	0.808	0.685
in vitro model: valerate, time point: constant (~7 days, model-specific)	0.0828	0.872	0.0258	0.39	–
in vitro model: valerate, time point: terminal (~4-5 doublings, model-specific)	0.0583	0.938	-0.0184	0.654	0.845
